The source of these data is patent US8153626B2, “Substituted diazepine sulfonamides as bombesin receptor subtype-3 modulators” (Merck Sharp & Dohme Corp., priority 2006, dated 2012).

The target in experiment [1] is T1, human BRS3 (Homo sapiens, UniProt P32247).
T1 construct: expressed in transfected cells
T1 sequence (P32247 1-399): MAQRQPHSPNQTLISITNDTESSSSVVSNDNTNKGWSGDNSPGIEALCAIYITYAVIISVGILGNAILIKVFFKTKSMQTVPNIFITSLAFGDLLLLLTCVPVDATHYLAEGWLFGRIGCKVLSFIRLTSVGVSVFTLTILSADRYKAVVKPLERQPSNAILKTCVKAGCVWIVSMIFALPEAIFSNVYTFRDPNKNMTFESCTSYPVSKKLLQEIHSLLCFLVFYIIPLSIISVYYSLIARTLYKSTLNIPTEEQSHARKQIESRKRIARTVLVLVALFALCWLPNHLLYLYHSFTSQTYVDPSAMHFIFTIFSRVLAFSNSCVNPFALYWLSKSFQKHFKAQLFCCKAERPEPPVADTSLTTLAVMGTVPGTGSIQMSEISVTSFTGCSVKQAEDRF
Briefly: [125I]-dY-peptide radioligand binding assay (filtration, membranes). The procedure:
Dissociated cells were collected by centrifuging at 1000 rpm for 10 minutes. Cell pellets were resuspended and homogenized at 4° C. using a Polytron homogenizer (setting 40, 20 stokes) in approximately 10 mL membrane preparation buffer (10 mM Tris pH 7.4, 0.01 mM Pefabloc, 10 μM phosphoramidon and 40 μg/mL Bacitracin) per T175 flask. After centrifugation at 2200 rpm (1000×g) for 10 minutes at 4° C., the supernatant was transferred to a clean centrifuge tube and spun at 18,000 rpm (38,742×g) for 15 minutes. at 4° C.
The filters were washed five times with ice-cold washing buffer (1×PBS without Mg^++ and Ca^++). The radioactivity was determined by adding 30 μl of microscintillant/well after each plate was dried at room temperature overnight or placed at 50° C. for 1 hr.
A Packard Top Count was used to read the filter plates. The data in % inhibition of binding was plotted vs. the log molar concentration of receptor ligand (compound). The IC50 was reported as the inflection point of the resulting sigmoidal curve. […] The binding assays for the rat and mouse Bombesin Receptor Subtype 3 (BRS3) were performed in a similar fashion.

Experiment [2] has as its target T1, human BRS3. Nature of the experiment: Aequorin bioluminescent assay to measure intracellular Ca++ (HEK293AEQ cells). It counts as cell-based. The settings on record: read-out: human BRS-3 EC50. Here is the method:
HEK293/AEQ cell lines stably expressing either human, rat or mouse BRS3 cDNA were generated using standard cell biology techniques and were used for all functional assays and to prepare membranes for the rat BRS3 binding assay. […] The transfected cells were used to prepare membranes for the [^3H]-biphenyl binding assay and for the functional assays. The cells were maintained in culture under the same conditions used for the human and rat stable BRS3 HEK293AEQ cell lines. All cells were grown as attached monolayers to approximately 90% confluency in tissue culture flasks under the appropriate media in an incubator at 37° C. with 5% CO2. Cells were passed 1:3 to 1:5 twice a week depending on the rate of growth.
The same media (8 mL) containing 20 μM coelenterzine was added to the cells and incubated at 37° C. for 1 hr. The media was aspirated and the flasks rinsed with 6 mL ECB buffer (140 mM NaCl, 20 mM KCl, 20 mM HEPES, 5 mM glucose, 1 mM MgCl, 1 mM CaCl, 0.1 mg/mL BSA, pH 7.4). The cells were dissociated with a rubber-tipped scraper in 6 mL of fresh ECB buffer and collected by centrifugation at 2500 rpm for 5 minutes. The cell pellets were resuspended in ECB buffer to a concentration of 200,000 cells/mL and were either used right away or quickly frozen in liquid nitrogen for storage at −80° C. for up to six weeks.
The Aequorin assay itself was performed in 96-well format using a Wallac Microbeta luminometer equipped with microinjector module. Compounds in DMSO (0.5% final concentration) were titrated in the plates at 2× concentration in a volume of 0.1 mL ECB buffer. The cells (20,000 per well) were then injected in 0.1 mL ECB buffer and the bioluminescence monitored for 30 seconds. Alternatively, total bioluminescence was determined over 10 minutes. The bioluminescent readings were plotted vs. the log molar concentration of receptor ligand (compound). The EC50 for activation was reported as the inflection point of the resulting sigmoidal curve.

Setting [3] is: Bombesin Subtype-3 Receptor agonism, method C, racemic mixture or the more potent enantiomer after HPLC separation.
Setting [4] is: Bombesin Subtype-3 Receptor Binding, method A, racemic mixture or the more potent enantiomer after HPLC separation, read-out: human BRS-3 IC50.

Where two headings read alike, the source gives them in different places.

Regarding `CC(C)(O)c1nc(-c2cccc3c2N(S(=O)(=O)c2ccc(OC(F)(F)F)cc2)Cc2ccc(C(F)(F)F)nc2N3)no1` (racemic) [Example 1, 2-{3-[6-{[4-(Trifluoromethoxy)phenyl]sulfonyl}-2-(trifluoromethyl)-6,11-dihydro-5H-pyrido[2,3-b][1,5]benzodiazepin-7-yl]-1,2,4-oxadiazol-5-yl}propan-2-ol], the IC50 (usually the concentration that inhibits the measured activity by half) on human BRS3 [1] was 3.6 nM. Further, the EC50 (commonly the concentration giving half of the maximal effect) at human BRS3 [2] (setting [3]) is 73 nM.
For `CC(C)(O)c1nc(-c2cccc3c2N(S(=O)(=O)c2ccc(C(F)(F)F)cc2)Cc2ccc(C(F)(F)F)nc2N3)no1` (racemic) [Example 2, 2-[3-(2-(Trifluoromethyl)-6-{[4-(trifluoromethyl)phenyl]sulfonyl}-6,11-dihydro-5H-pyrido[2,3-b][1,5]benzodiazepin-7-yl)-1,2,4-oxadiazol-5-yl]propan-2-ol], the IC50 on human BRS3 [1] (setting [4]) came to 8.3 nM. In addition, the EC50 at human BRS3 [2] (setting [3]) stood at 158 nM.
On the same counts, the results for `CC(C)(C)c1ccc(S(=O)(=O)N2Cc3ccc(C(F)(F)F)nc3Nc3cccc(-c4noc(C(C)(C)O)n4)c32)cc1` (racemic) [Example 3, 2-{3-[6-[(4-tert-Butylphenyl)sulfonyl]-2-(trifluoromethyl)-6,11-dihydro-5H-pyrido[2,3-b][1,5]benzodiazepin-7-yl]-1,2,4-oxadiazol-5-yl}propan-2-ol] are 1.9 nM and 63 nM.
In the case of `CC(C)(O)c1nc(-c2cccc3c2N(S(=O)(=O)c2ccc(C4(C(F)(F)F)CC4)cc2)Cc2ccc(C(F)(F)F)nc2N3)no1` (racemic) [Example 4, 2-{3-[2-(Trifluoromethyl)-6-({4-[1-(trifluoromethyl)cyclopropyl]phenyl}sulfonyl)-6,11-dihydro-5H-pyrido[2,3-b][1,5]benzodiazepin-7-yl]-1,2,4-oxadiazol-5-yl}-2-propanol], the IC50 on human BRS3 [1] (setting [4]) worked out at 3.3 nM. Further, the EC50 at human BRS3 [2] (setting [3]) turned out to be 139 nM.
As to `CC(C)(C)c1ccc(S(=O)(=O)N2Cc3ccc(C(F)(F)F)nc3Nc3cccc(-c4noc(CO)n4)c32)cc1` (racemic) [Example 5, {3-[6-[(4-tert-Butylphenyl)sulfonyl]-2-(trifluoromethyl)-6,11-dihydro-5H-pyrido[2,3-b]-[1,5]benzodiazepin-7-yl]-1,2,4-oxadiazol-5-yl}methanol], at human BRS3 [1] (setting [4]), the IC50 stood at 0.75 nM. Moreover, the EC50 at human BRS3 [2] (setting [3]) came out at 34 nM.
Regarding `O=S(=O)(c1ccc(C(F)(F)F)cc1)N1Cc2ccc(C(F)(F)F)nc2Nc2cccc(-c3noc(CO)n3)c21` (racemic) [Example 6, [3-(2-(Trifluoromethyl)-6-{[4-(trifluoromethyl)phenyl]sulfonyl}-6,11-dihydro-5H-pyrido[2,3-b]-[1,5]benzodiazepin-7-yl)-1,2,4-oxadiazol-5-yl]methanol], the IC50 at human BRS3 [1] (setting [4]) was 6.4 nM. Besides, the concentration for a half-maximal effect (EC50) on human BRS3 [2] (setting [3]) was 52 nM.
Consider `O=S(=O)(c1ccc(OC(F)(F)F)cc1)N1Cc2ccc(C(F)(F)F)nc2Nc2cccc(-c3noc(CO)n3)c21` (racemic) [Example 7, {3-[6-{[4-(Trifluoromethoxy)phenyl]sulfonyl}-2-(trifluoromethyl)-6,11-dihydro-5H-pyrido[2,3-b]-[1,5]benzodiazepin-7-yl]-1,2,4-oxadiazol-5-yl}methanol], for which the IC50 on human BRS3 [1] (setting [4]) came to 2.9 nM. Also, at human BRS3 [2] (setting [3]), the EC50 was 33 nM.
`Cc1ccc2c(c1C)N(S(=O)(=O)c1ccc(C(C)(C)C)cc1)Cc1ccc(C(F)(F)F)nc1N2` (racemic) [Example 251, 6-[(4-tert-Butylphenyl)sulfonyl]-7,8-dimethyl-2-(trifluoromethyl)-6,11-dihydro-5H-pyrido[2,3-b][1,5]benzodiazepine]: the IC50 at human BRS3 [1] came out at 1 nM. Besides, the EC50 on human BRS3 [2] (setting [3]) came to 100 nM.
With `CC(C)(C)c1ccc(S(=O)(=O)N2Cc3ccc(C(F)(F)F)nc3Nc3ccc4ncccc4c32)cc1` [Example 316, 13-[(4-tert-Butylphenyl)sulfonyl]-9-(trifluoromethyl)-12,13-dihydro-7H-pyrido[2′,3′:5,6][1,4]diazepino[2,3-ƒ]quinoline], the IC50 at human BRS3 [1] was found to be 0.64 nM. For the same compound, the EC50 at human BRS3 [2] (setting [3]) was found to be 48 nM.
`CC(C)(C)c1ccc(S(=O)(=O)N2Cc3ccc(C(F)(F)F)nc3Nc3ccc(C(C)(C)C(=O)O)cc32)cc1` [Example 374, 2-[6-[(4-tert-Butylphenyl)sulfonyl]-2-(trifluoromethyl)-6,11-dihydro-5H-pyrido[2,3-b][1,5]benzodiazepin-8-yl]-2-methylpropanoic acid]: the IC50 at human BRS3 [1] (setting [4]) was 4.9 nM. The EC50 at human BRS3 [2] (setting [3]) was determined as 130 nM.
Turning to `CC(C)(C)c1ccc(S(=O)(=O)N2Cc3ccc(C(F)(F)F)nc3Nc3ccc(-c4noc(CO)n4)cc32)cc1` [Example 437, {3-[6-[(4-tert-Butylphenyl)sulfonyl]-2-(trifluoromethyl)-6,11-dihydro-5H-pyrido[2,3-b][1,5]benzodiazepin-8-yl]-1,2,4-oxadiazol-5-yl}methanol], the IC50 at human BRS3 [1] (setting [4]) amounted to 4.1 nM. Besides, the EC50 on human BRS3 [2] (setting [3]) came out at 121 nM.
On the same counts, the results for `CC(C)(C)c1ccc(S(=O)(=O)N2Cc3ccc(C(F)(F)F)nc3Nc3ccncc32)cc1` [Example 464, 6-[(4-tert-Butylphenyl)sulfonyl]-2-(trifluoromethyl)-6,11-dihydro-5H-dipyrido[2,3-e:3′,4′-b][1,4]diazepine] are 38 nM and 196 nM.
Regarding `CC(C)(O)c1nc(C2(c3cccc4c3N(S(=O)(=O)c3ccc(OC(F)(F)F)cc3)Cc3ccc(C(F)(F)F)nc3N4)CCC2)no1` [Example 531, 2-(3-{1-[6-{[4-(Trifluoromethoxy)phenyl]sulfonyl}-2-(trifluoromethyl)-6,11-dihydro-5H-pyrido[2,3-b][1,5]benzodiazepin-7-yl]cyclobutyl}-1,2,4-oxadiazol-5-yl)propan-2-ol], the IC50 at human BRS3 [1] (read-out: human BRS-3 IC50) came to 0.65 nM. In addition, the EC50 on human BRS3 [2] was 94 nM.
Consider `CC(C)(C(N)=O)c1cccc2c1N(S(=O)(=O)c1ccc(OC(F)(F)F)cc1)Cc1ccc(C(F)(F)F)nc1N2` [Example 533, 2-Methyl-2-[6-{[4-(trifluoromethoxy)phenyl]sulfonyl}-2-(trifluoromethyl)-6,11-dihydro-5H-pyrido[2,3-b][1,5]-benzodiazepin-7-yl]propanamide], for which the IC50 on human BRS3 [1] (setting [4]) worked out at 2.2 nM. For the same compound, the EC50 at human BRS3 [2] (setting [3]) stood at 16 nM.
For the compound `Cc1ccc2c(n1)N(S(=O)(=O)c1ccc(C(C)(C)C)cc1)Cc1ccc(C(F)(F)F)nc1N2` [Example 536], the IC50 on human BRS3 [1] (setting [4]) worked out at 5.3 nM. The EC50 on human BRS3 [2] (setting [3]) is 66 nM.
